The source of these data is patent US12054487B2, “Muscarinic acetylcholine M1 receptor antagonists” (Contineum Therapeutics, Inc., priority 2018, dated 2024).

What all share (type): cell-based
For one test, the target named is T1, human M1 receptor (Homo sapiens, UniProt P11229).
T1 construct: host or cells: CHO-K1
T1 sequence (P11229 1-460): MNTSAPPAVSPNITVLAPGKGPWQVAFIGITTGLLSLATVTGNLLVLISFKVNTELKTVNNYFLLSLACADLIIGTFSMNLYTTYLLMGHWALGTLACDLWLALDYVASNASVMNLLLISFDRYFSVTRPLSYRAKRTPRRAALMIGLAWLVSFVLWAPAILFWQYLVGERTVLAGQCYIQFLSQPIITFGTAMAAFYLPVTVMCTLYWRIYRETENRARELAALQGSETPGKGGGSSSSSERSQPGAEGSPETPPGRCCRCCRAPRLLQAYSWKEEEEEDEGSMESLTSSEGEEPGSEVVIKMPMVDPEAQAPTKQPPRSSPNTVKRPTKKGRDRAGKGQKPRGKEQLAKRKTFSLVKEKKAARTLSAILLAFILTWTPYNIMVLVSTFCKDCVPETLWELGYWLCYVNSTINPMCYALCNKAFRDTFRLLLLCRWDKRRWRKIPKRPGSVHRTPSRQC
As to the kind of experiment: In vitro functional assay of muscarinic acetylcholine receptor activity (aequorin calcium flux, antagonist mode vs EC80 acetylcholine), M1. Conditions: CHO-K1 cells stably expressing human M1 receptor with Aequorin; decrease in EC80 acetylcholine response. Here is the method: (§1) CHO-K1 cells stably expressing human M1 receptor with Aequorin (Perkin Elmer) were grown in F12 media, 10% FBS with 0.4 mg/mL geneticin and […]. Cells were grown to confluence and frozen down to be assayed at a later date. On the day of the experiment cells were thawed in a 37° C. water bath, resuspended in DMEM/HAM's F12 with HEPES (Invitrogen)+0.1% protease-free BSA (assay buffer), and spun down to remove freezing media. After centrifugation, supernatant was removed and 12 mL of assay buffer was added. Coelenterazine h (Promega) was added to the cells at a final concentration of 5 uM and incubated for 4 hours at room temperature in the dark. Compound master plate-96 deep well (Corning) were formatted in a 8-point DRC in assay buffer with 0.2% DMSO at a starting concentration of 60 uM (2×). After 4 hours of incubation, cells were plated at a concentration of 5×10^5 cells/well in 96 well white-walled, tissue culture-treated, clear-bottom plates (VWR). Compounds were added to the daughter plate, and cells plus compound were incubated at room temperature for 30 minutes in the dark.
(§2) Calcium flux was measured using the FlexStation 3 (Molecular Devices). To measure the antagonist dose-response, the EC80 of Acetylcholine was injected to the daughter plate using the automated compound transfer function of the Flex Station, and the increase in luminescence was measured over time. Antagonist activity was analyzed as a concentration dependent decrease in the EC80 acetylcholine response. Dose response curves were generated using Prism (GraphPad Software). The IC50 of the compounds was calculated from the dose response curve.
On the technique in general: A change in cytosolic calcium serves as a functional read-out for many receptors and channels.

For another test, the target named is T2, M2 (Homo sapiens, UniProt P08172).
T2 sequence (P08172 1-466): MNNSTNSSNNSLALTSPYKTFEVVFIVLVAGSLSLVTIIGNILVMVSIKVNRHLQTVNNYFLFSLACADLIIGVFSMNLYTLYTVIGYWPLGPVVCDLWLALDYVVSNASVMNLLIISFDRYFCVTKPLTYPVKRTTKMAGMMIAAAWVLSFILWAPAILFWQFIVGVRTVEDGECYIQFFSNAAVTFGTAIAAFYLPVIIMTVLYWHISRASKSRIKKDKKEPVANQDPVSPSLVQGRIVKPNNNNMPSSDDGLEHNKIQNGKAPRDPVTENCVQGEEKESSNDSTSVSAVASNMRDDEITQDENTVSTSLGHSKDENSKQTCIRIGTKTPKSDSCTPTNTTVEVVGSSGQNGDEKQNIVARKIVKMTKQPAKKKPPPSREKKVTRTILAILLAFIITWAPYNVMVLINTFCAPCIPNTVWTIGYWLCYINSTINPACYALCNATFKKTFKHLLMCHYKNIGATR
As to the kind of experiment: In vitro functional assay of muscarinic acetylcholine receptor activity, M2. The following applies: antagonist activity; M2 method not separately described. The method, then:
[The procedure below names another target; the source lists this target under the same test.] as §1, §2

The next test addresses M3 (Homo sapiens, UniProt P20309). As to the kind of experiment: In vitro functional assay of muscarinic acetylcholine receptor activity, M3. The following applies: antagonist activity; M3 method not separately described. Here is the method:
[The procedure below names another target; the source lists this target under the same test.] as §1, §2

Where only a bound is given, the exact number is not on record here.

By IC50 is commonly meant the point on the concentration scale where inhibition reaches its midpoint.

Sequence of M3 (P20309 whole entry): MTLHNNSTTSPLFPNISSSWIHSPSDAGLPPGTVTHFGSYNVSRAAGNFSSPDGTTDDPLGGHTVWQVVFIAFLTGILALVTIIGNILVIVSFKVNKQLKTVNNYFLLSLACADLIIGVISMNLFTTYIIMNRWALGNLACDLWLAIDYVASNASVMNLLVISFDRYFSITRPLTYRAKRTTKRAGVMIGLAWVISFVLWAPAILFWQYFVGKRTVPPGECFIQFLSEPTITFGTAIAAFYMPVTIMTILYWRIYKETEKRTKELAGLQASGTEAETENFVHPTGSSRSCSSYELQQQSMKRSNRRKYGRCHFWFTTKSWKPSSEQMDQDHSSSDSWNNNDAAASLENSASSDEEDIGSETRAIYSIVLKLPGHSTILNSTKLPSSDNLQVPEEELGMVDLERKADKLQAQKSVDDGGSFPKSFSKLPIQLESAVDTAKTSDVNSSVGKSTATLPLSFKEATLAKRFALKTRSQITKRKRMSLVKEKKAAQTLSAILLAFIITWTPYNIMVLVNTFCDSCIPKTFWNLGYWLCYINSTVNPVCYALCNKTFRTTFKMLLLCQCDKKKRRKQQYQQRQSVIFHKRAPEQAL

Consider `N#Cc1ccc(N2CCN3C(=O)[C@@H](CCCc4cccc5c4NCCN5)C[C@H]3C2)nc1` [Example 61, 6-((7S,8aS)-6-oxo-7-(3-(1,2,3,4-tetrahydroquinoxalin-5-yl)propyl)hexahydropyrrolo[1,2-a]pyrazin-2(1H)-yl)nicotinonitrile], for which the IC50 at human M1 receptor was 0.1 to 1 µM; on M2 it was 1 to 10 µM; against M3, over 10 µM.
The matching figures for `O=C1[C@@H](CCCc2cccc3ncnn23)C[C@H]2CN(c3ccc(Cl)cn3)CCN12` [Example 34, (7S,8aS)-7-(3-([1,2,4]triazolo[1,5-a]pyridin-5-yl)propyl)-2-(5-chloropyridin-2-yl)hexahydropyrrolo[1,2-a]pyrazin-6(2H)-one]: under 0.1 µM, 1 to 10 µM and 1 to 10 µM.
In the case of `N#Cc1ccc(N2CCN3C(=O)[C@@H](CCCc4cccc5cncn45)C[C@H]3C2)nc1` [Example 14, 6-((7S,8aS)-7-(3-(imidazo[1,5-a]pyridin-5-yl)propyl)-6-oxohexahydropyrrolo[1,2-a]pyrazin-2(1H)-yl)nicotinonitrile], the values for the IC50 on human M1 receptor, at M2 and against M3 were 0.1 to 1 µM, 1 to 10 µM and 1 to 10 µM, respectively.
As for `N#Cc1ccc(N2CCN3C(=O)[C@@H](CCCc4cccc5nnnn45)C[C@H]3C2)nc1` [Example 17, 6-((7S,8aS)-6-oxo-7-(3-(tetrazolo[1,5-a]pyridin-5-yl)propyl)hexahydropyrrolo[1,2-a]pyrazin-2(1H)-yl)nicotinonitrile], the IC50 is under 0.1 µM on human M1 receptor, 1 to 10 µM at M2 and 1 to 10 µM on M3.
As for `COc1ccc(N2CCN3C(=O)[C@@H](CCCc4cccc5ncnn45)C[C@H]3C2)cn1` [Example 38, (7S,8aS)-7-(3-([1,2,4]triazolo[1,5-a]pyridin-5-yl)propyl)-2-(6-methoxypyridin-3-yl)hexahydropyrrolo[1,2-a]pyrazin-6(2H)-one], the IC50 was 1 to 10 µM on human M1 receptor, over 10 µM at M2 and over 10 µM at M3.
Consider `O=C1C(CCCc2cccc3ncnn23)C[C@H]2CN(c3ccc(F)cn3)CCN12` (single isomer, unassigned) [Example 50], for which the results for the IC50 at human M1 receptor, against M2 and at M3 were 0.1 to 1 µM, over 10 µM and over 10 µM, respectively.
On to `O=C1C(CCCc2c(F)ccc3nccn23)C[C@H]2CN(c3ccc(F)cn3)CCN12` (stereo partly drawn) [Example 89, (8aS)-7-(3-(6-fluoroimidazo[1,2-a]pyridin-5-yl)propyl)-2-(5-fluoropyridin-2-yl)hexahydropyrrolo[1,2-a]pyrazin-6(2H)-one], for which the IC50 is under 0.1 µM on human M1 receptor, 1 to 10 µM against M2 and 1 to 10 µM on M3.
In the case of `O=C1[C@H](CCCc2cccc3ncsc23)C[C@@H]2CN(c3ccncc3F)CCN12` [Example 8, (7R,8aR)-7-(3-(benzo[d]thiazol-7-yl)propyl)-2-(3-fluoropyridin-4-yl)hexahydropyrrolo[1,2-a]pyrazin-6(2H)-one], the IC50 on human M1 receptor, at M2 and against M3 was over 10 µM in each case.
For `N#Cc1ccc(N2CCN3C(=O)[C@@H](CCCc4cccc5ncoc45)C[C@H]3C2)nc1` [Example 22, 6-((7S,8aS)-7-(3-(benzo[d]oxazol-7-yl)propyl)-6-oxohexahydropyrrolo[1,2-a]pyrazin-2(1H)-yl)nicotinonitrile], the 50% inhibitory concentration (IC50) at human M1 receptor is under 0.1 µM; on M2, 0.1 to 1 µM; against M3 it was 1 to 10 µM.
The matching figures for `O=C1[C@@H](CCCc2cccn3ncnc23)C[C@H]2CN(c3ncccn3)CCN12` [Example 66, (7S,8aS)-7-(3-([1,2,4]triazolo[1,5-a]pyridin-8-yl)propyl)-2-(pyrimidin-2-yl)hexahydropyrrolo[1,2-a]pyrazin-6(2H)-one]: 0.1 to 1 µM, over 10 µM and over 10 µM.
The matching figures for `O=C1[C@@H](CCCc2cccc3ncnn23)C[C@H]2CN(c3cccc(C(F)(F)F)n3)CCN12` [Example 31, (7S,8aS)-7-(3-([1,2,4]triazolo[1,5-a]pyridin-5-yl)propyl)-2-(6-(trifluoromethyl)pyridin-2-yl)hexahydropyrrolo[1,2-a]pyrazin-6(2H)-one]: 1 to 10 µM, over 10 µM and over 10 µM.
The matching figures for `O=C1C(CCCc2cccc3ncnn23)C[C@H]2CN(c3ccc(C(F)F)cn3)CCN12` (mixture of isomers) [Example 46, (8aS)-7-(3-([1,2,4]triazolo[1,5-a]pyridin-5-yl)propyl)-2-(5-(difluoromethyl)pyridin-2-yl)hexahydropyrrolo[1,2-a]pyrazin-6(2H)-one]: under 0.1 µM, 1 to 10 µM and 1 to 10 µM.
Turning to `O=C1[C@@H](CCCc2cccc3ncsc23)C[C@@H]2CN(c3ccncc3F)CCN12` [Example 7, (7S,8aR)-7-(3-(benzo[d]thiazol-7-yl)propyl)-2-(3-fluoropyridin-4-yl)hexahydropyrrolo[1,2-a]pyrazin-6(2H)-one], the IC50 on human M1 receptor was 1 to 10 µM; against M2, 1 to 10 µM; against M3, over 10 µM.
For the molecule `Cn1ncc2cccc(CCC[C@H]3C[C@H]4CN(c5ccc(C#N)cn5)CCN4C3=O)c21` [Example 55, 6-((7S,8aS)-7-(3-(1-methyl-1H-indazol-7-yl)propyl)-6-oxohexahydropyrrolo[1,2-a]pyrazin-2(1H)-yl)nicotinonitrile], the IC50 on human M1 receptor lay within 0.1 to 1 µM; against M2, 1 to 10 µM; on M3, 1 to 10 µM.
As for `COc1cc(N2CCN3C(=O)[C@@H](CCCc4cccc5ncnn45)C[C@H]3C2)ccn1` [Example 37, (7S,8aS)-2-(2-methoxypyridin-4-yl)-7-(3-{[1,2,4]triazolo[1,5-a]pyridin-5-yl}propyl)-octahydropyrrolo[1,2-a]pyrazin-6-one], the results for the IC50 on human M1 receptor, on M2 and against M3 were under 0.1 µM, 1 to 10 µM and 1 to 10 µM, respectively.
For the molecule `N#Cc1ccc(N2CCN3C(=O)[C@@H](CCCc4cccc5c4CCC5)C[C@H]3C2)nc1` [Example 18, 6-((7S,8aS)-7-(3-(2,3-dihydro-1H-inden-4-yl)propyl)-6-oxohexahydropyrrolo[1,2-a]pyrazin-2(1H)-yl)nicotinonitrile], the IC50 on human M1 receptor is 1 to 10 µM; against M2 it was 1 to 10 µM; against M3, over 10 µM.
In the case of `N#Cc1ccc(N2CCN3C(=O)[C@@H](CCCc4cccnn4)C[C@H]3C2)nc1` [Example 56, 6-((7S,8aS)-6-oxo-7-(3-(pyridazin-3-yl)propyl)hexahydropyrrolo[1,2-a]pyrazin-2(1H)-yl)nicotinonitrile], the figures for the concentration for half-maximal inhibition (IC50) on human M1 receptor, on M2 and at M3 were under 0.1 µM, 0.1 to 1 µM and 0.1 to 1 µM, respectively.
Consider `Cn1cnc2cccc(CCC[C@H]3C[C@H]4CN(c5ccc(C#N)cn5)CCN4C3=O)c21` [Example 54, 6-((7S,8aS)-7-(3-(1-methyl-1H-benzo[d]imidazol-7-yl)propyl)-6-oxohexahydropyrrolo[1,2-a]pyrazin-2(1H)-yl)nicotinonitrile], for which the IC50 on human M1 receptor was under 0.1 µM; at M2, 0.1 to 1 µM; against M3, 1 to 10 µM.
The matching figures for `Cc1nccnc1CCC[C@H]1C[C@H]2CN(c3ccc(C#N)cn3)CCN2C1=O` [Example 57, 6-((7S,8aS)-7-(3-(3-methylpyrazin-2-yl)propyl)-6-oxohexahydropyrrolo[1,2-a]pyrazin-2(1H)-yl)nicotinonitrile]: 1 to 10 µM, 1 to 10 µM and over 10 µM.
